In ChEMBL document CHEMBL1133694, “Hydroxamic acid derivatives as potent peptide deformylase inhibitors and antibacterial agents” (J Med Chem, 2000):
≈ marks a conversion by molar mass, not a printed value.

Columns and labels:
Bacillus subtilis = experiment: In vitro antibacterial activity against Bacillus subtilis ATCC 585969.; type: functional
Chlamydia pneumoniae = experiment: In vitro antibacterial activity against Chlamydia pneumoniae AR-39.; type: functional
Escherichia coli [1] = experiment: In vitro antibacterial activity against Escherichia coli ATCC 25922.; type: functional
Escherichia coli [2] = experiment: In vitro antibacterial activity against isolated Escherichia coli DC2; type: functional
[3] = biological target: T1, Endothelin-converting enzyme 1 (Homo sapiens, UniProt P42892); experiment: Inhibitory activity against Endothelin-converting enzyme 1
T1 sequence (P42892 whole entry): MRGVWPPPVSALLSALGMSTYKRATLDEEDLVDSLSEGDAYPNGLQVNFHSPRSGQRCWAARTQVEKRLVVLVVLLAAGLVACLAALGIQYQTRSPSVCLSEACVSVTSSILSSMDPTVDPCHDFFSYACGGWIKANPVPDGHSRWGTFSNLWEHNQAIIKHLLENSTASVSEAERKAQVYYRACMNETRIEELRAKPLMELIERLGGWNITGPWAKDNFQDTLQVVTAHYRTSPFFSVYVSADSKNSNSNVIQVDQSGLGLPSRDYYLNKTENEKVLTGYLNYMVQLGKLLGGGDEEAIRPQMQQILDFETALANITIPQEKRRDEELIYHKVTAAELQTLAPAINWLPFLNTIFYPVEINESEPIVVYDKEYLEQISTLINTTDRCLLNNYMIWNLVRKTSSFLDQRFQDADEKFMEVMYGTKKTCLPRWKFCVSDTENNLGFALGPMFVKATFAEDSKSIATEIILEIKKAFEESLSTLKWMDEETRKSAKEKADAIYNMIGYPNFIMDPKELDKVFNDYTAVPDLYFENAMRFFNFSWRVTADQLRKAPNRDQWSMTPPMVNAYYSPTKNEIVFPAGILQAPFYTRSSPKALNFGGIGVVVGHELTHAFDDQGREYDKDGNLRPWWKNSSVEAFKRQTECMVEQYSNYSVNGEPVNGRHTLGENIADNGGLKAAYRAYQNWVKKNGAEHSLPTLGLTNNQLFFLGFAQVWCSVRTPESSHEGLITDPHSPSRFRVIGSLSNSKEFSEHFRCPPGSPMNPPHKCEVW

Haemophilus influenzae = experiment: In vitro antibacterial activity against Haemophilus influenzae 11.; type: functional
Collagenase 3 = Collagenase 3 (Homo sapiens, UniProt P45452); experiment: Inhibition of Matrix metalloprotease-13
Interstitial collagenase = biological target: T2, Interstitial collagenase (Homo sapiens, UniProt P03956); experiment: Inhibition of Matrix metalloprotease-1
T2 sequence (P03956 whole entry): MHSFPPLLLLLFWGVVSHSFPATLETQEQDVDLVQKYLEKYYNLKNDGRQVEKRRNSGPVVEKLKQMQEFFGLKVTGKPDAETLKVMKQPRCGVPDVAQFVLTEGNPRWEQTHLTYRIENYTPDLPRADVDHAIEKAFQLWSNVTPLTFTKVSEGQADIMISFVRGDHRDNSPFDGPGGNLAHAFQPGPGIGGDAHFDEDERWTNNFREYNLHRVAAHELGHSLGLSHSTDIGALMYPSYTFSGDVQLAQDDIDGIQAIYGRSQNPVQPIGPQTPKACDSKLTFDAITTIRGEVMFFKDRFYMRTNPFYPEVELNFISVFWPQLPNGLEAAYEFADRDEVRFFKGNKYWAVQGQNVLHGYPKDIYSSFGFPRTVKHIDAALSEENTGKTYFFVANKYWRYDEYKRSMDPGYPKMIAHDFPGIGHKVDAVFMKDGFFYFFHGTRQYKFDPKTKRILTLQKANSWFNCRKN

[4] = biological target: Macrophage metalloelastase (Homo sapiens, UniProt P39900); experiment: Inhibition of human Matrix metalloprotease-12
Moraxella catarrhalis = experiment: In vitro antibacterial activity against isolated Moraxella catarrhalis RA21; type: functional
[5] = tested on: Mycoplasmoides pneumoniae; experiment: In vitro antibacterial activity against Mycoplasma pneumoniae ATCC 29342.; type: functional
Neprilysin [6] = biological target: T3, Neprilysin (Rattus norvegicus, UniProt P07861); experiment: Inhibitory activity against endopeptidase enzyme (NEP).
T3 sequence (P07861 whole entry): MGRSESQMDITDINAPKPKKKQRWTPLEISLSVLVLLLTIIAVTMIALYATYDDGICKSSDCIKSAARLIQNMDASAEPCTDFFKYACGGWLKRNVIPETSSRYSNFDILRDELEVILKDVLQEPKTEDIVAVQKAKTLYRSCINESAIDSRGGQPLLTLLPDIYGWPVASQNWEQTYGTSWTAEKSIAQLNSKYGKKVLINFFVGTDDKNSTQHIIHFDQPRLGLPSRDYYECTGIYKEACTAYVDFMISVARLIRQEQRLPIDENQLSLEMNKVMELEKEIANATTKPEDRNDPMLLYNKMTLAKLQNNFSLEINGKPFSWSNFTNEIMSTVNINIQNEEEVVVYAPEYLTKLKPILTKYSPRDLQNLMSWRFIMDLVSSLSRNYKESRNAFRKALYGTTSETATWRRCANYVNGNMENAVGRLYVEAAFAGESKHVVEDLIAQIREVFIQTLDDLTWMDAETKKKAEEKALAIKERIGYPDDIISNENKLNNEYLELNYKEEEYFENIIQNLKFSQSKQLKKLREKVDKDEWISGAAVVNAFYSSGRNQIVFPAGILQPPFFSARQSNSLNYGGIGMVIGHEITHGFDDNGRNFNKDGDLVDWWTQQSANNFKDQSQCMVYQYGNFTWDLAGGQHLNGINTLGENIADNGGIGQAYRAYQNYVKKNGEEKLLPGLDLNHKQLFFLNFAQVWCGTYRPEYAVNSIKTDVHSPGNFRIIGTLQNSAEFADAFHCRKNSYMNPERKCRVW

Pseudomonas aeruginosa = experiment: In vitro antibacterial activity against Pseudomonas aeruginosa ATCC 27853.; type: functional
Staphylococcus aureus = experiment: In vitro antibacterial activity against Staphylococcus aureus ATCC 25923.; type: functional
Streptococcus pneumoniae [7] = experiment: In vitro antibacterial activity against Streptococcus pneumoniae ATCC 49619.; type: functional
[8] = biological target: Angiotensin-converting enzyme (Homo sapiens, UniProt P12821)
Enterococcus faecalis = experiment: In vitro antibacterial activity against Enterococcus faecalis ATCC 29212.; type: functional
Enterococcus faecium = experiment: In vitro antibacterial activity against Enterococcus faecium vanA E25_1.; type: functional
Neprilysin [9] = biological target: T3, Neprilysin; experiment: Inhibitory activity against neutral endopeptidase enzyme (NEP).
[10] = Inhibitory activity against PDF isolated from Bacillus subtilis
[11] = tested on: Stenotrophomonas maltophilia; experiment: In vitro antibacterial activity against Stenotrophomonas maltophilia 1AC739.; type: functional
Streptococcus pneumoniae [12] = experiment: In vitro antibacterial activity against Streptococcus pneumoniae 1/1 (penicillin resistant).; type: functional
[13] = tested on: peptide deformylase (Streptococcus pneumoniae); experiment: Inhibitory activity against PDF isolated from Streptococcus pneumoniae
Peptide deformylase = biological target: T4, Peptide deformylase (Escherichia coli, UniProt Q9JN24); experiment: Inhibitory activity against isolated Escherichia coli peptidyl deformylase (PDF) enzyme containing iron.
T4 sequence (Q9JN24 whole entry): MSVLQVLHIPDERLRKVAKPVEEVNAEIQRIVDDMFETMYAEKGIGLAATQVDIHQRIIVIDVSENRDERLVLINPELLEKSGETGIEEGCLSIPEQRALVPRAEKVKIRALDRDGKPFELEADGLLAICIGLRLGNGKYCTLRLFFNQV

Sequence of Angiotensin-converting enzyme (P12821 whole entry): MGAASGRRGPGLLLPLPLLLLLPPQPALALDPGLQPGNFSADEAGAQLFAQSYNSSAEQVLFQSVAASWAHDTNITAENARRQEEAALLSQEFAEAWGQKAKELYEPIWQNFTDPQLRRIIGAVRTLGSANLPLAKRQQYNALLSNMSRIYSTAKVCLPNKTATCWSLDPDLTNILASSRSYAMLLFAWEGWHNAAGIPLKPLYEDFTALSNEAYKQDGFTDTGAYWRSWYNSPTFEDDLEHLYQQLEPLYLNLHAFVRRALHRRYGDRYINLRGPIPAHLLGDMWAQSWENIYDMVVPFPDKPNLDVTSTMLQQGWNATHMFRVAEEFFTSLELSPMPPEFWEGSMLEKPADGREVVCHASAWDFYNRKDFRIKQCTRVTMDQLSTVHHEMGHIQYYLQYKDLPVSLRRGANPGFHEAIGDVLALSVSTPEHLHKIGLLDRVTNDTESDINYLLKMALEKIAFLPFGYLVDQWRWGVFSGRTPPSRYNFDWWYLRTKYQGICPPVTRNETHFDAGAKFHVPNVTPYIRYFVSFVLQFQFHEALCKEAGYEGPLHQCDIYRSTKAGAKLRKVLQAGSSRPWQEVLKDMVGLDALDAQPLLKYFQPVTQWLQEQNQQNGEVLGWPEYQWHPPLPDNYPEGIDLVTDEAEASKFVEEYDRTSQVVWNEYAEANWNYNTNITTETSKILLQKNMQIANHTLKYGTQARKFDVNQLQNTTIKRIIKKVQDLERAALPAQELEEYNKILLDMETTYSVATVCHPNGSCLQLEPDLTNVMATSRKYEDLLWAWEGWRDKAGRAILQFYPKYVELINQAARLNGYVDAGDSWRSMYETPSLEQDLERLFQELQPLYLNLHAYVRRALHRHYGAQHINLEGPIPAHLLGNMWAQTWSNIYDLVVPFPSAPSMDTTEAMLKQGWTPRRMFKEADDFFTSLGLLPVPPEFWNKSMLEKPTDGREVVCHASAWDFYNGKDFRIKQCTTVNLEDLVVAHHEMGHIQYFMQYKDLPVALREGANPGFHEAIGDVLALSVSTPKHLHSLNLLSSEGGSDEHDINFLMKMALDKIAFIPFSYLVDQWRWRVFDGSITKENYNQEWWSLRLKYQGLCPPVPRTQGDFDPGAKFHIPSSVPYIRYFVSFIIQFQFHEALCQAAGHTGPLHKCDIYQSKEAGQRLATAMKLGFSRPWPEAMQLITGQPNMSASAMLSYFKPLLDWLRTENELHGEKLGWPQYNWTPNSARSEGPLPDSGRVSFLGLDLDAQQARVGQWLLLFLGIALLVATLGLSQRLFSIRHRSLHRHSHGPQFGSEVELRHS
Sequence of Macrophage metalloelastase (P39900 whole entry): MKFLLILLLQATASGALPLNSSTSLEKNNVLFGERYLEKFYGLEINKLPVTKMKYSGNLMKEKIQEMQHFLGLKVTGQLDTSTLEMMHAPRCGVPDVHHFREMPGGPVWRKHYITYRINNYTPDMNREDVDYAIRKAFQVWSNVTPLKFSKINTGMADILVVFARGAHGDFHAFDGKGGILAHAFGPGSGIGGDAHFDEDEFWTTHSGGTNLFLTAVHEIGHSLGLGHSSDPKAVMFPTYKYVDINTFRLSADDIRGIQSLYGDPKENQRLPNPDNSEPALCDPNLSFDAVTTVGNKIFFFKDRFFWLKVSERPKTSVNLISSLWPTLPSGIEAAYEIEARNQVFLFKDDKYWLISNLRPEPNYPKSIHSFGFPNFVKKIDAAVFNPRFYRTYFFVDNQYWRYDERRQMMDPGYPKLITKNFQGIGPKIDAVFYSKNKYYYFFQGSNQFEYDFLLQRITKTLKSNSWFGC

CCCC[C@H](CC(=O)NO)S(=O)(=O)c1ccccc1
MIC (Bacillus subtilis): 1 µg/mL (≈ 3.5 µM) | MIC (Chlamydia pneumoniae): 0.5 µg/mL (≈ 1.75 µM) | MIC (Escherichia coli [1]): 128 µg/mL (≈ 449 µM) | MIC (Escherichia coli [2]): 2 µg/mL (≈ 7.01 µM) | IC50 [3]: > 100 µM | MIC (Haemophilus influenzae): 2 µg/mL (≈ 7.01 µM) | IC50 (Collagenase 3): 79 nM | IC50 (Interstitial collagenase): 150 nM | IC50 [4]: 42 nM | MIC (Moraxella catarrhalis): < 0.25 µg/mL | MIC [5]: 0.5 µg/mL (≈ 1.75 µM) | IC50 (Neprilysin [6]): 2.5 µM | MIC (Pseudomonas aeruginosa): > 128 µg/mL | MIC (Staphylococcus aureus): 128 µg/mL (≈ 449 µM) | MIC (Streptococcus pneumoniae [7]): 128 µg/mL (≈ 449 µM) | IC50 [8]: 34 µM

CCCC[C@@H](CC(=O)NO)S(=O)(=O)c1ccccc1
MIC (Escherichia coli [2]): > 128 µg/mL | IC50 [3]: > 100 µM | IC50 (Collagenase 3): 18 nM | IC50 (Interstitial collagenase): 300 nM | IC50 [4]: 9 nM | MIC (Moraxella catarrhalis): 16 µg/mL (≈ 56.1 µM) | IC50 (Neprilysin [6]): 15 µM | IC50 [8]: > 100 µM

CCCCC(CC(=O)NO)S(=O)(=O)c1ccccc1 (stereo not drawn)
MIC (Bacillus subtilis): 1 µg/mL (≈ 3.5 µM) | MIC (Chlamydia pneumoniae): 0.5 µg/mL (≈ 1.75 µM) | MIC (Escherichia coli [1]): 128 µg/mL (≈ 449 µM) | MIC (Enterococcus faecalis): > 128 µg/mL | MIC (Escherichia coli [2]): 8 µg/mL (≈ 28 µM) | MIC (Enterococcus faecium): > 128 µg/mL | IC50 [3]: > 50 µM | MIC (Haemophilus influenzae): 4 µg/mL (≈ 14 µM) | IC50 (Collagenase 3): 22 nM | IC50 (Interstitial collagenase): 110 nM | IC50 [4]: 12 nM | MIC (Moraxella catarrhalis): < 0.25 µg/mL | MIC [5]: 1 µg/mL (≈ 3.5 µM) | IC50 (Neprilysin [9]): 18 µM | IC50 [10]: 96 nM | MIC (Pseudomonas aeruginosa): > 128 µg/mL | MIC (Staphylococcus aureus): 256 µg/mL (≈ 897 µM) | MIC (Streptococcus pneumoniae [7]): 128 µg/mL (≈ 449 µM) | MIC [11]: 4 µg/mL (≈ 14 µM) | MIC (Streptococcus pneumoniae [12]): 128 µg/mL (≈ 449 µM) | IC50 [8]: 81 µM | IC50 [13]: 340 nM

CC(CC(=O)NO)S(=O)(=O)c1ccccc1 (stereo not drawn)
MIC (Escherichia coli [2]): > 32 µg/mL | MIC (Moraxella catarrhalis): > 32 µg/mL

CCCCC(CC(=O)NO)[S+]([O-])c1ccc(Br)cc1 (stereo not drawn)
MIC (Escherichia coli [2]): 1 µg/mL (≈ 2.87 µM) | MIC (Moraxella catarrhalis): < 0.125 µg/mL | IC50 (Peptide deformylase): 210 nM

CCCCC(CC(=O)NO)S(=O)(=O)c1cccc(OC)c1 (stereo not drawn)
MIC (Escherichia coli [2]): 16 µg/mL (≈ 50.7 µM) | MIC (Moraxella catarrhalis): 2 µg/mL (≈ 6.34 µM) | IC50 (Peptide deformylase): 86 nM

CCCCC(CC(=O)NO)S(=O)(=O)c1ccc(OC)cc1 (stereo not drawn)
MIC (Escherichia coli [2]): 16 µg/mL (≈ 50.7 µM) | MIC (Moraxella catarrhalis): 0.5 µg/mL (≈ 1.59 µM) | IC50 (Peptide deformylase): 31 nM

CCCC[C@H](C(O)C(=O)NO)[S+]([O-])c1ccccc1 (stereo partly drawn)
MIC (Escherichia coli [2]): 1 µg/mL (≈ 3.5 µM) | MIC (Moraxella catarrhalis): < 0.06 µg/mL

CCCC[C@@H](C(O)C(=O)NO)[S+]([O-])c1ccccc1 (stereo partly drawn)
MIC (Escherichia coli [2]): 32 µg/mL (≈ 112 µM) | MIC (Moraxella catarrhalis): 4 µg/mL (≈ 14 µM)

CCCCCC(CC(=O)NO)S(=O)(=O)c1ccccc1 (stereo not drawn)
MIC (Escherichia coli [2]): 2 µg/mL (≈ 6.68 µM) | MIC (Moraxella catarrhalis): < 0.06 µg/mL | IC50 (Peptide deformylase): 140 nM

CCCCC(CC(=O)NO)[S+]([O-])c1ccccc1 (stereo not drawn)
MIC (Bacillus subtilis): 0.25 µg/mL (≈ 0.928 µM) | MIC (Chlamydia pneumoniae): 0.25 µg/mL (≈ 0.928 µM) | MIC (Escherichia coli [1]): 32 µg/mL (≈ 119 µM) | MIC (Enterococcus faecalis): > 128 µg/mL | MIC (Escherichia coli [2]): 1 µg/mL (≈ 3.71 µM) | MIC (Enterococcus faecium): > 128 µg/mL | IC50 [3]: > 100 µM | MIC (Haemophilus influenzae): 1 µg/mL (≈ 3.71 µM) | IC50 (Interstitial collagenase): 93 nM | MIC (Moraxella catarrhalis): < 0.25 µg/mL | MIC [5]: 0.25 µg/mL (≈ 0.928 µM) | IC50 (Neprilysin [9]): 2.6 µM | IC50 [10]: 46 nM | MIC (Pseudomonas aeruginosa): > 128 µg/mL | MIC (Staphylococcus aureus): 16 µg/mL (≈ 59.4 µM) | MIC (Streptococcus pneumoniae [7]): 32 µg/mL (≈ 119 µM) | MIC [11]: < 0.25 µg/mL | MIC (Streptococcus pneumoniae [12]): 64 µg/mL (≈ 238 µM) | IC50 [8]: > 100 µM | IC50 [13]: 240 nM

CCCCCCS(=O)(=O)C(CCCC)CC(=O)NO (stereo not drawn)
MIC (Escherichia coli [2]): 64 µg/mL (≈ 218 µM) | MIC (Moraxella catarrhalis): 4 µg/mL (≈ 13.6 µM)

CCCCC(CC(=O)NO)S(=O)(=O)c1ccc(Br)cc1 (stereo not drawn)
MIC (Escherichia coli [2]): 16 µg/mL (≈ 43.9 µM) | MIC (Moraxella catarrhalis): 2 µg/mL (≈ 5.49 µM)
